Data as given in patent US6914045B2, “Glycopeptide antibiotics” (Wyeth Holdings Corporation, priority 2001, dated 2005).
Values after ≈ are worked out from the molar mass of the structure shown.

Tests used:
Assay in all cases: in vitro antibacterial evaluation, MIC by broth dilution
Format in all cases: cell-based
Escherichia coli = conditions: 18 hours at 35° C.
Procedure: (§1) The minimum inhibitory concentration (MIC), the lowest concentration of the antibiotic which inhibits growth of the test organism, is determined by the broth dilution method using Muller-Hinton II […] (Baltimore Biological Laboratories) following the recommendations of the National Committee for Clinical Laboratory Standards [Methods for dilution antimicrobial susceptibility tests for bacteria that grow aerobically, approved standard M7-A2, National Committee for Clinical Laboratory Standards, Villanova, Pa.].
(§2) An inoculum level of 5×10^5 CFU/mL, and a range of antibiotic concentrations (64-0.06 μg/mL) is used. […] The test organisms include a spectrum of Gram-positive bacteria comprised of Staphylococcus sp., Streptococcus sp. and Enterococcus sp. These organisms include recent clinical isolates that are resistant to methicillin, penicillin and/or vancomycin.

Staphylococcus sp. = system: Staphylococcus sp.
Procedure: (§3) Methods for in vitro Antibacterial Evaluation (Table 1)
as §1, §2

Enterococcus sp. = conditions: broth dilution, 18 hours at 35° C.
Procedure: as §3, §1, §2

Streptococcus sp. = conditions: broth dilution, 18 hours at 35° C.
Procedure: as §3, §1, §2

[1] = broth dilution, 18 hours at 35° C.
[2] = strain ATCC 29213; broth dilution, 18 hours at 35° C.
[3] = strain GC 1131; broth dilution, 18 hours at 35° C.
[4] = strain GC 4535; broth dilution, 18 hours at 35° C.
[5] = strain GC 4536; broth dilution, 18 hours at 35° C.
[6] = strain GC 4537; broth dilution, 18 hours at 35° C.
[7] = strain GC 4538; broth dilution, 18 hours at 35° C.
[8] = strain GC 4547; broth dilution, 18 hours at 35° C.
[9] = Enterococcus faecalis (ATCC 29212)
[10] = Enterococcus faecalis (GC 4552)

CCCCCC(=O)OCC1OC(N2C(=N)NCC2C(O)C2NC(=O)C(C(O)C3CNC(=N)N3)NC(=O)C(Cc3ccc(OC4OC(CO)C(OC5OC(CO)C(O)C(O)C5O)C(O)C4O)cc3)NC(=O)C(C(C)c3ccccc3)NC(=O)CNC(=O)C(CO)NC2=O)C(O)C(O)C1O (stereo not drawn) [Example 95, Cyclo[glycyl-β-methylphenylalanyl-O-(4-O-hexojpyranosylhexopyranosyl)tyrosyl-3-(2-iminoimidazolidin-4-yl)seryl-3-[3-(6-O-hexanoylhexopyranosyl)-2-iminoimidazolidin-4-yl]serylseryl]]
MIC Escherichia coli (GC 4559) (Escherichia coli): >64 µg/mL
MIC Escherichia coli (GC 4560) (Escherichia coli): 8 µg/mL (≈ 5.74 µM)
MIC Coagulase Negative Staphylococcus (GC 4537) (Staphylococcus sp.; [1]): >64 µg/mL
MIC Coagulase Negative Staphylococcus (GC 4538) (Staphylococcus sp.; [1]): >64 µg/mL
MIC Coagulase Negative Staphylococcus (GC 4547) (Staphylococcus sp.; [1]): >64 µg/mL
MIC Staphylococcus aureus (ATCC 29213) (Staphylococcus sp.; [2]): >64 µg/mL
MIC Staphylococcus aureus (GC 1131) (Staphylococcus sp.; [3]): >64 µg/mL
MIC Staphylococcus aureus (GC 4535) (Staphylococcus sp.; [4]): >64 µg/mL
MIC Staphylococcus aureus-SMITH (GC 4536) (Staphylococcus sp.; [5]): >64 µg/mL
MIC Coagulase Negative Staphylococcus (GC 4537) (Staphylococcus sp.; [6]): >64 µg/mL
MIC Coagulase Negative Staphylococcus (GC 4538) (Staphylococcus sp.; [7]): >64 µg/mL
MIC Coagulase Negative Staphylococcus (GC 4547) (Staphylococcus sp.; [8]): >64 µg/mL
MIC Enterococcus faecalis (ATCC 29212) (Enterococcus sp.; [9]): >64 µg/mL
MIC Enterococcus faecalis (GC 4552) (Enterococcus sp.; [10]): >64 µg/mL
MIC Enterococcus faecalis (ATCC 29212) (Enterococcus sp.): >64 µg/mL
MIC Enterococcus faecalis (GC 2242) (Enterococcus sp.): >64 µg/mL
MIC Enterococcus faecalis (GC 4552) (Enterococcus sp.): >64 µg/mL
MIC Enterococcus faecalis (GC 2242) (Enterococcus sp.; strain GC 2242): >64 µg/mL

CCCCCC(=O)OCC1OC(Oc2ccc(CC3NC(=O)C(C(C)c4ccccc4)NC(=O)CNC(=O)C(CO)NC(=O)C(C(O)C4CNC(=N)N4C4OC(CO)C(O)C(O)C4O)NC(=O)C(C(O)C4CNC(=N)N4)NC3=O)cc2)C(O)C(O)C1OC1OC(CO)C(O)C(O)C1O (stereo not drawn) [Example 95a, Cyclo[glycyl-β-methylphenylalanyl-O-(6-O-hexanoyl-4-O-hexopranosylhexopyranosyl)-tyrosyl-3-(2-iminoimidazolidin-4-yl)sery-3-(3-hexopyranosyl-2-iminoimidazolidin-4-yl)-serylseryl]]
MIC Escherichia coli (GC 4559) (Escherichia coli): >64 µg/mL
MIC Escherichia coli (GC 4560) (Escherichia coli): 2 µg/mL (≈ 1.44 µM)
MIC Coagulase Negative Staphylococcus (GC 4537) (Staphylococcus sp.; [1]): 8 µg/mL (≈ 5.74 µM)
MIC Coagulase Negative Staphylococcus (GC 4538) (Staphylococcus sp.; [1]): 4 µg/mL (≈ 2.87 µM)
MIC Coagulase Negative Staphylococcus (GC 4547) (Staphylococcus sp.; [1]): 4 µg/mL (≈ 2.87 µM)
MIC Staphylococcus aureus (ATCC 29213) (Staphylococcus sp.; [2]): 4 µg/mL (≈ 2.87 µM)
MIC Staphylococcus aureus (GC 1131) (Staphylococcus sp.; [3]): 4 µg/mL (≈ 2.87 µM)
MIC Staphylococcus aureus (GC 4535) (Staphylococcus sp.; [4]): 8 µg/mL (≈ 5.74 µM)
MIC Staphylococcus aureus-SMITH (GC 4536) (Staphylococcus sp.; [5]): 4 µg/mL (≈ 2.87 µM)
MIC Coagulase Negative Staphylococcus (GC 4537) (Staphylococcus sp.; [6]): 8 µg/mL (≈ 5.74 µM)
MIC Coagulase Negative Staphylococcus (GC 4538) (Staphylococcus sp.; [7]): 4 µg/mL (≈ 2.87 µM)
MIC Coagulase Negative Staphylococcus (GC 4547) (Staphylococcus sp.; [8]): 4 µg/mL (≈ 2.87 µM)
MIC Enterococcus faecalis (ATCC 29212) (Enterococcus sp.; [9]): 32 µg/mL (≈ 23 µM)
MIC Enterococcus faecalis (GC 4552) (Enterococcus sp.; [10]): 32 µg/mL (≈ 23 µM)
MIC Enterococcus faecalis (ATCC 29212) (Enterococcus sp.): 32 µg/mL (≈ 23 µM)
MIC Enterococcus faecalis (GC 2242) (Enterococcus sp.): 16 µg/mL (≈ 11.5 µM)
MIC Enterococcus faecalis (GC 4552) (Enterococcus sp.): 32 µg/mL (≈ 23 µM)
MIC Enterococcus faecalis (GC 2242) (Enterococcus sp.; strain GC 2242): 16 µg/mL (≈ 11.5 µM)

CC(c1ccccc1)C1NC(=O)CNC(=O)C(CO)NC(=O)C(C(O)C2CNC(=N)N2C2OC(CO)C(O)C(O)C2O)NC(=O)C(C(O)C2CNC(=N)N2)NC(=O)C(Cc2ccc(OC3OC(CO)C(OC4OC(CO)C(OCC=C(c5ccccc5)c5ccccc5)C(O)C4O)C(O)C3O)cc2)NC1=O (centres unmarked) [Example 241a]
MIC Streptococcus agalactiae (GC 4564) (Streptococcus sp.): <0.06 µg/mL
MIC Streptococcus pneumoniae (ATCC 6301) (Streptococcus sp.): <0.06 µg/mL
MIC Streptococcus pneumoniae (GC 1894) (Streptococcus sp.): <0.06 µg/mL
MIC Streptococcus pneumoniae (GC 4565) (Streptococcus sp.): <0.06 µg/mL
MIC Streptococcus pyogenes (GC 4563) (Streptococcus sp.): <0.06 µg/mL
MIC Streptococcus pneumoniae (ATCC 6301) (Streptococcus sp.; inoculum 5×10^5 CFU/mL, strain ATCC 6301): <0.06 µg/mL
MIC Streptococcus pneumoniae (GC 1894) (Streptococcus sp.; inoculum 5×10^5 CFU/mL, strain GC 1894): <0.06 µg/mL
MIC Streptococcus pyogenes (GC 4563) (Streptococcus sp.; inoculum 5×10^5 CFU/mL, strain GC 4563): <0.06 µg/mL
MIC Streptococcus agalactiae (GC 4564) (Streptococcus sp.; inoculum 5×10^5 CFU/mL, strain GC 4564): <0.06 µg/mL
MIC Streptococcus pneumoniae (GC 4565) (Streptococcus sp.; inoculum 5×10^5 CFU/mL, strain GC 4565): <0.06 µg/mL
MIC Coagulase Negative Staphylococcus (GC 4547) (Staphylococcus sp.; [1]): 4 µg/mL (≈ 2.69 µM)
MIC Coagulase Negative Staphylococcus (GC 4548) (Staphylococcus sp.; [1]): 2 µg/mL (≈ 1.34 µM)
MIC Coagulase Negative Staphylococcus (GC 4549) (Staphylococcus sp.; [1]): 1 µg/mL (≈ 0.672 µM)
MIC Coagulase Negative Staphylococcus (GC 4551) (Staphylococcus sp.; [1]): 4 µg/mL (≈ 2.69 µM)
MIC Coagulase Negative Staphylococcus (GC 6257) (Staphylococcus sp.; [1]): 1 µg/mL (≈ 0.672 µM)
MIC Staphylococcus aureus (ATCC 29213) (Staphylococcus sp.; [1]): 2 µg/mL (≈ 1.34 µM)
MIC Staphylococcus aureus (GC 1131) (Staphylococcus sp.; [1]): 2 µg/mL (≈ 1.34 µM)
MIC Staphylococcus aureus (GC 3051) (Staphylococcus sp.; [1]): 2 µg/mL (≈ 1.34 µM)
MIC Staphylococcus aureus (GC 3053) (Staphylococcus sp.; [1]): 2 µg/mL (≈ 1.34 µM)
MIC Staphylococcus aureus (GC 4541) (Staphylococcus sp.; [1]): 2 µg/mL (≈ 1.34 µM)
MIC Staphylococcus aureus (GC 4542) (Staphylococcus sp.; [1]): 2 µg/mL (≈ 1.34 µM)
MIC Staphylococcus aureus (GC 4544) (Staphylococcus sp.; [1]): 4 µg/mL (≈ 2.69 µM)
MIC Staphylococcus aureus (GC 4545) (Staphylococcus sp.; [1]): 2 µg/mL (≈ 1.34 µM)
MIC Staphylococcus aureus-SMITH (GC 4543) (Staphylococcus sp.; [1]): 2 µg/mL (≈ 1.34 µM)
MIC Staphylococcus haemolyticus (GC 4546) (Staphylococcus sp.; [1]): 2 µg/mL (≈ 1.34 µM)
MIC Staphylococcus aureus (ATCC 29213) (Staphylococcus sp.; broth dilution, 18 hours at 35° C.; strain ATCC 29213): 2 µg/mL (≈ 1.34 µM)
MIC Staphylococcus aureus (GC 1131) (Staphylococcus sp.; broth dilution, 18 hours at 35° C.; strain GC 1131): 2 µg/mL (≈ 1.34 µM)
MIC Staphylococcus aureus (GC 3051) (Staphylococcus sp.; broth dilution, 18 hours at 35° C.; strain GC 3051): 2 µg/mL (≈ 1.34 µM)
MIC Staphylococcus aureus (GC 3053) (Staphylococcus sp.; broth dilution, 18 hours at 35° C.; strain GC 3053): 2 µg/mL (≈ 1.34 µM)
MIC Staphylococcus aureus (GC 4541) (Staphylococcus sp.; broth dilution, 18 hours at 35° C.; strain GC 4541): 2 µg/mL (≈ 1.34 µM)
MIC Staphylococcus aureus (GC 4542) (Staphylococcus sp.; broth dilution, 18 hours at 35° C.; strain GC 4542): 2 µg/mL (≈ 1.34 µM)
MIC Staphylococcus aureus-SMITH (GC 4543) (Staphylococcus sp.; broth dilution, 18 hours at 35° C.; strain GC 4543): 2 µg/mL (≈ 1.34 µM)
MIC Staphylococcus aureus (GC 4544) (Staphylococcus sp.; broth dilution, 18 hours at 35° C.; strain GC 4544): 4 µg/mL (≈ 2.69 µM)
MIC Staphylococcus aureus (GC 4545) (Staphylococcus sp.; broth dilution, 18 hours at 35° C.; strain GC 4545): 2 µg/mL (≈ 1.34 µM)
MIC Staphylococcus haemolyticus (GC 4546) (Staphylococcus sp.; broth dilution, 18 hours at 35° C.; strain GC 4546): 2 µg/mL (≈ 1.34 µM)
MIC Coagulase Negative Staphylococcus (GC 4547) (Staphylococcus sp.; broth dilution, 18 hours at 35° C.; strain GC 4547): 4 µg/mL (≈ 2.69 µM)
MIC Coagulase Negative Staphylococcus (GC 4548) (Staphylococcus sp.; broth dilution, 18 hours at 35° C.; strain GC 4548): 2 µg/mL (≈ 1.34 µM)
MIC Coagulase Negative Staphylococcus (GC 4549) (Staphylococcus sp.; broth dilution, 18 hours at 35° C.; strain GC 4549): 1 µg/mL (≈ 0.672 µM)
MIC Coagulase Negative Staphylococcus (GC 4551) (Staphylococcus sp.; broth dilution, 18 hours at 35° C.; strain GC 4551): 4 µg/mL (≈ 2.69 µM)
MIC Coagulase Negative Staphylococcus (GC 6257) (Staphylococcus sp.; broth dilution, 18 hours at 35° C.; strain GC 6257): 1 µg/mL (≈ 0.672 µM)
MIC Enterococcus faecalis (GC 2242) (Enterococcus sp.): 4 µg/mL (≈ 2.69 µM)
MIC Enterococcus faecalis (GC 2691) (Enterococcus sp.): 2 µg/mL (≈ 1.34 µM)
MIC Enterococcus faecalis (GC 3059) (Enterococcus sp.): 2 µg/mL (≈ 1.34 µM)
MIC Enterococcus faecalis (GC 4552) (Enterococcus sp.): 4 µg/mL (≈ 2.69 µM)
MIC Enterococcus faecalis (ATCC 29212) (Enterococcus sp.; strain ATCC 29212): 4 µg/mL (≈ 2.69 µM)
MIC Enterococcus faecium (GC 2243) (Enterococcus sp.; strain GC 2243): 2 µg/mL (≈ 1.34 µM)
MIC Enterococcus faecalis (GC 4552) (Enterococcus sp.; strain GC 4552): 4 µg/mL (≈ 2.69 µM)
MIC Enterococcus faecalis (GC 4553) (Enterococcus sp.; strain GC 4553): 4 µg/mL (≈ 2.69 µM)
MIC Enterococcus faecalis (GC 4554) (Enterococcus sp.; strain GC 4554): 4 µg/mL (≈ 2.69 µM)
MIC Enterococcus faecium (GC 4556) (Enterococcus sp.; strain GC 4556): 2 µg/mL (≈ 1.34 µM)
MIC Enterococcus faecium (GC 4557) (Enterococcus sp.; strain GC 4557): 2 µg/mL (≈ 1.34 µM)
MIC Enterococcus avium (GC 4558) (Enterococcus sp.; strain GC 4558): 2 µg/mL (≈ 1.34 µM)
MIC Enterococcus faecalis (GC 6189) (Enterococcus sp.; strain GC 6189): 2 µg/mL (≈ 1.34 µM)
MIC Enterococcus faecalis (GC 2242) (Enterococcus sp.; inoculum 5×10^5 CFU/mL, strain GC 2242): 4 µg/mL (≈ 2.69 µM)
MIC Enterococcus faecalis (GC 2691) (Enterococcus sp.; inoculum 5×10^5 CFU/mL, strain GC 2691): 2 µg/mL (≈ 1.34 µM)
MIC Enterococcus faecalis (GC 3059) (Enterococcus sp.; inoculum 5×10^5 CFU/mL, strain GC 3059): 2 µg/mL (≈ 1.34 µM)
